Holding throughout (type): in vivo
Conditions in all cases: wettable powder applied 3 days after transplanting, judged after 25 days

In one data set the test system is Cyperus serotinus. The experiment in a line: Test Example 1: herbicidal effects, paddy-field pot test. The method in brief: (§1)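 Paddy-soil pots sown with weed seeds, germinated Cyperus serotinus tubers and 2.2-leaf rice transplants, kept flooded in a greenhouse. Wettable powder diluted in water applied at set dosage 3 days after transplanting. Weed control and rice injury scored 25 days later on a 0-5 growth-inhibition scale.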

In another data set the test system is Scirpus joncoides. The description is as above. The method in brief: as §1
Data set [1] concerns annual broad-leaved weeds (Lindernia spp., Rotala indica). The data set is described as above. The method in brief: as §1
For data set [2], the system named is barnyardgrass (Echinochloa oryzicola Vasing.). The data set is described as above. In outline:
as §1

The subject of data set [3] is transplanted paddy-field rice. The experiment in a line: Test Example 1: crop injury against transplanted paddy-field rice. In outline: as §1

This note sets out measurements from patent US7964531B2, “3-phenoxy-4-pyridazinol derivatives and herbicidal composition containing the same” (Mitsui Chemicals Agro, Inc., priority 2001, dated 2011).

Molecules are shown by their SMILES.

`CCOc1ccccc1Oc1nnc(Cl)cc1O` [Example 122]: the “Herbicidal effects Cyperus serotinus” value in the data set with Cyperus serotinus (chemical dosage 10 g/a) and in the data set with Cyperus serotinus (chemical dosage 20 g/a) was 5 (Growth inhibition rate; 91 to 100%) throughout. The results for the “Herbicidal effects Scirpus joncoides” value in the data set with Scirpus joncoides (chemical dosage 10 g/a) and in the data set on Scirpus joncoides (chemical dosage 20 g/a) were 4 (Growth inhibition rate; 71 to 90%) and 5 (Growth inhibition rate; 91 to 100%), respectively. The “Herbicidal effects Broad leaf” value in data set [1] (chemical dosage 10 g/a) and in data set [1] (chemical dosage 20 g/a) was 5 (Growth inhibition rate; 91 to 100%) each time. In addition, the “Herbicidal effects Barnyard grass” value in data set [2] (chemical dosage 10 g/a) and in data set [2] (chemical dosage 20 g/a) was 0 (Growth inhibition rate; 0 to 10%) each time. The “Crop injury against transplanted rice” value in data set [3] (chemical dosage 10 g/a) and in data set [3] (chemical dosage 20 g/a) was 0 (Growth inhibition rate; 0 to 10%) in each case.

Consider `O=C(Oc1cc(Cl)nnc1Oc1ccccc1C1CC1)C1CC1` [Example 327], for which the “Herbicidal effects Cyperus serotinus” value with Cyperus serotinus (chemical dosage 10 g/a) and in the data set with Cyperus serotinus (chemical dosage 20 g/a) was 5 (Growth inhibition rate; 91 to 100%) each time. In addition, the “Herbicidal effects Scirpus joncoides” value in the data set with Scirpus joncoides (chemical dosage 10 g/a) and with Scirpus joncoides (chemical dosage 20 g/a) was 5 (Growth inhibition rate; 91 to 100%) in each case. Besides, the “Herbicidal effects Broad leaf” value in data set [1] (chemical dosage 10 g/a) and in data set [1] (chemical dosage 20 g/a) was 5 (Growth inhibition rate; 91 to 100%) throughout. In addition, the “Herbicidal effects Barnyard grass” value in data set [2] (chemical dosage 10 g/a) and in data set [2] (chemical dosage 20 g/a) was 4 (Growth inhibition rate; 71 to 90%) throughout. Besides, the “Crop injury against transplanted rice” value in data set [3] (chemical dosage 10 g/a) and in data set [3] (chemical dosage 20 g/a) was 0 (Growth inhibition rate; 0 to 10%) throughout.

Take `CCc1cccc(C)c1Oc1nnc(Cl)cc1O` [Example 260]: the “Herbicidal effects Cyperus serotinus” value in the data set with Cyperus serotinus (chemical dosage 10 g/a) and in the data set on Cyperus serotinus (chemical dosage 20 g/a) was 5 (Growth inhibition rate; 91 to 100%) in each case. Besides, the “Herbicidal effects Scirpus joncoides” value with Scirpus joncoides (chemical dosage 10 g/a) and with Scirpus joncoides (chemical dosage 20 g/a) was 5 (Growth inhibition rate; 91 to 100%) throughout. The “Herbicidal effects Broad leaf” value in data set [1] (chemical dosage 10 g/a) and in data set [1] (chemical dosage 20 g/a) was 5 (Growth inhibition rate; 91 to 100%) each time. Besides, the “Herbicidal effects Barnyard grass” value in data set [2] (chemical dosage 10 g/a) was 2 (Growth inhibition rate; 31 to 50%); in data set [2] (chemical dosage 20 g/a) it was 3 (Growth inhibition rate; 51 to 70%). For the same compound, the “Crop injury against transplanted rice” value in data set [3] (chemical dosage 10 g/a) and in data set [3] (chemical dosage 20 g/a) was 0 (Growth inhibition rate; 0 to 10%) each time.

In the case of `Cc1ccc(C)c(Oc2nnc(Cl)cc2O)c1C` [Example 295], the “Herbicidal effects Cyperus serotinus” value with Cyperus serotinus (chemical dosage 12.5 g/a) and in the data set with Cyperus serotinus (chemical dosage 25 g/a) was 5 (Growth inhibition rate; 91 to 100%) throughout. Also, the “Herbicidal effects Scirpus joncoides” value in the data set on Scirpus joncoides (chemical dosage 12.5 g/a) and with Scirpus joncoides (chemical dosage 25 g/a) was 5 (Growth inhibition rate; 91 to 100%) each time. For the same compound, the “Herbicidal effects Broad leaf” value in data set [1] (chemical dosage 12.5 g/a) and in data set [1] (chemical dosage 25 g/a) was 5 (Growth inhibition rate; 91 to 100%) throughout. Besides, the “Herbicidal effects Barnyard grass” value in data set [2] (chemical dosage 12.5 g/a) is given as 0 (Growth inhibition rate; 0 to 10%); in data set [2] (chemical dosage 25 g/a), 1 (Growth inhibition rate; 11 to 30%). For the same compound, the “Crop injury against transplanted rice” value in data set [3] (chemical dosage 12.5 g/a) and in data set [3] (chemical dosage 25 g/a) was 0 (Growth inhibition rate; 0 to 10%) each time.

As to `Oc1cc(Cl)nnc1Oc1cccc(F)c1F` [Example 154], the “Herbicidal effects Cyperus serotinus” value in the data set on Cyperus serotinus (chemical dosage 10 g/a) and in the data set on Cyperus serotinus (chemical dosage 20 g/a) was 5 (Growth inhibition rate; 91 to 100%) in each case. The figures for the “Herbicidal effects Scirpus joncoides” value with Scirpus joncoides (chemical dosage 10 g/a) and with Scirpus joncoides (chemical dosage 20 g/a) were 3 (Growth inhibition rate; 51 to 70%) and 5 (Growth inhibition rate; 91 to 100%), respectively. The “Herbicidal effects Broad leaf” value in data set [1] (chemical dosage 10 g/a) and in data set [1] (chemical dosage 20 g/a) was 5 (Growth inhibition rate; 91 to 100%) in each case. Besides, the figures for the “Herbicidal effects Barnyard grass” value in data set [2] (chemical dosage 10 g/a) and in data set [2] (chemical dosage 20 g/a) were 1 (Growth inhibition rate; 11 to 30%) and 2 (Growth inhibition rate; 31 to 50%), respectively. Also, the “Crop injury against transplanted rice” value in data set [3] (chemical dosage 10 g/a) and in data set [3] (chemical dosage 20 g/a) was 0 (Growth inhibition rate; 0 to 10%) in each case.

As to `Cc1coc2cccc(Oc3nnc(Cl)cc3O)c12` [Example 184], the “Herbicidal effects Cyperus serotinus” value with Cyperus serotinus (chemical dosage 20 g/a) is on record as 5 (Growth inhibition rate; 91 to 100%). Further, in the data set on Scirpus joncoides (chemical dosage 20 g/a), the “Herbicidal effects Scirpus joncoides” value is 4 (Growth inhibition rate; 71 to 90%). Moreover, the “Herbicidal effects Broad leaf” value in data set [1] (chemical dosage 20 g/a) was 5 (Growth inhibition rate; 91 to 100%). In addition, the “Herbicidal effects Barnyard grass” value in data set [2] (chemical dosage 20 g/a) is recorded as 0 (Growth inhibition rate; 0 to 10%). Further, the “Crop injury against transplanted rice” value in data set [3] (chemical dosage 20 g/a) is on record as 0 (Growth inhibition rate; 0 to 10%).

As to `CC1CCc2cccc(Oc3nnc(Cl)cc3O)c21` (centres unmarked) [Example 172], the “Herbicidal effects Cyperus serotinus” value in the data set with Cyperus serotinus (chemical dosage 10 g/a) was 4 (Growth inhibition rate; 71 to 90%); in the data set on Cyperus serotinus (chemical dosage 20 g/a), 5 (Growth inhibition rate; 91 to 100%). Also, the “Herbicidal effects Scirpus joncoides” value in the data set with Scirpus joncoides (chemical dosage 10 g/a) and with Scirpus joncoides (chemical dosage 20 g/a) was 5 (Growth inhibition rate; 91 to 100%) each time. The “Herbicidal effects Broad leaf” value in data set [1] (chemical dosage 10 g/a) and in data set [1] (chemical dosage 20 g/a) was 5 (Growth inhibition rate; 91 to 100%) each time. Besides, the “Herbicidal effects Barnyard grass” value in data set [2] (chemical dosage 10 g/a) and in data set [2] (chemical dosage 20 g/a) was 5 (Growth inhibition rate; 91 to 100%) throughout. In addition, the “Crop injury against transplanted rice” value in data set [3] (chemical dosage 10 g/a) and in data set [3] (chemical dosage 20 g/a) was 0 (Growth inhibition rate; 0 to 10%) throughout.
